Test results: the NIST ThermoML archive (doi:10.1016/j.jct.2011.12.008)

Assay: xn = mol fraction of the nth substance listed
Conditions: 101 kPa, Liquid; for viscosity: Capillary tube (Ostwald / Ubbelohde) method; for mass density: Vibrating tube method

CCCCCCn1cc[n+](C)c1.F[B-](F)(F)F [1-hexyl-3-methylimidazolium tetrafluoroborate] + CC(C)CO
Conditions | mass density [kg/m3] | viscosity [mPa·s]
293.15 K, x1 = 0.3101 | 989.53 | 18.26
293.15 K, x1 = 0.4279 | 1031.42 | 26.88
293.15 K, x1 = 0.5606 | 1068.28 | 49.75
293.15 K, x1 = 0.6901 | 1097.67 | 84.38
293.15 K, x1 = 0.8327 | 1123.89 | 138.81
293.15 K, x1 = 1 | 1149.05 | 234.68
298.15 K, x1 = 0.3101 | 985.83 | 15.47
298.15 K, x1 = 0.4279 | 1027.83 | 23.01
298.15 K, x1 = 0.5606 | 1064.75 | 37.72
298.15 K, x1 = 0.6901 | 1094.14 | 66.81
298.15 K, x1 = 0.8327 | 1120.44 | 107.94
298.15 K, x1 = 1 | 1145.61 | 178.92
303.15 K, x1 = 0.1004 | 870.1 | 5.95
303.15 K, x1 = 0.151 | 902.53 | 7.454
303.15 K, x1 = 0.2009 | 931.08 | 8.374
303.15 K, x1 = 0.3101 | 982.2 | 12.94
303.15 K, x1 = 0.4279 | 1024.31 | 18.9
303.15 K, x1 = 0.5606 | 1061.3 | 32.1
303.15 K, x1 = 0.6901 | 1090.76 | 53.77
303.15 K, x1 = 0.8327 | 1117.15 | 84.55
303.15 K, x1 = 1 | 1142.3 | 136.15
308.15 K, x1 = 0.1004 | 866.28 | 4.975
308.15 K, x1 = 0.151 | 898.71 | 6.339
308.15 K, x1 = 0.2009 | 927.23 | 7.116
308.15 K, x1 = 0.3101 | 978.63 | 10.74
308.15 K, x1 = 0.4279 | 1020.8 | 15.81
308.15 K, x1 = 0.5606 | 1057.79 | 25.74
308.15 K, x1 = 0.6901 | 1087.32 | 45.36
308.15 K, x1 = 0.8327 | 1113.75 | 67.62
308.15 K, x1 = 1 | 1138.95 | 106.65
313.15 K, x1 = 0.1004 | 862.42 | 4.108
313.15 K, x1 = 0.151 | 894.93 | 5.202
313.15 K, x1 = 0.2009 | 923.74 | 6.184
313.15 K, x1 = 0.3101 | 975.11 | 9.102
313.15 K, x1 = 0.4279 | 1017.21 | 13.43
313.15 K, x1 = 0.5606 | 1054.27 | 21.67
313.15 K, x1 = 0.6901 | 1083.88 | 37.52
313.15 K, x1 = 0.8327 | 1110.33 | 52.79
313.15 K, x1 = 1 | 1135.59 | 83.13
318.15 K, x1 = 0.1004 | 858.54 | 3.188
318.15 K, x1 = 0.151 | 891.18 | 4.388
318.15 K, x1 = 0.2009 | 920.15 | 5.281
318.15 K, x1 = 0.3101 | 971.5 | 7.758
318.15 K, x1 = 0.4279 | 1013.64 | 11.45
318.15 K, x1 = 0.5606 | 1050.78 | 18.8
318.15 K, x1 = 0.6901 | 1080.45 | 31.4
318.15 K, x1 = 0.8327 | 1106.94 | 45.07
318.15 K, x1 = 1 | 1132.22 | 69.13
323.15 K, x1 = 0.1004 | 854.62 | 2.993
323.15 K, x1 = 0.151 | 887.3 | 3.765
323.15 K, x1 = 0.2009 | 916.37 | 4.555
323.15 K, x1 = 0.3101 | 967.87 | 6.719
323.15 K, x1 = 0.4279 | 1010.02 | 9.919
323.15 K, x1 = 0.5606 | 1047.3 | 15.64
323.15 K, x1 = 0.6901 | 1077.03 | 26.31
323.15 K, x1 = 0.8327 | 1103.61 | 36.01
323.15 K, x1 = 1 | 1128.88 | 56.74
328.15 K, x1 = 0.1004 | 850.65 | 2.586
328.15 K, x1 = 0.151 | 883.51 | 3.266
328.15 K, x1 = 0.2009 | 912.52 | 3.949
328.15 K, x1 = 0.3101 | 964.12 | 5.855
328.15 K, x1 = 0.4279 | 1006.35 | 8.616
328.15 K, x1 = 0.5606 | 1043.79 | 13.62
328.15 K, x1 = 0.6901 | 1073.6 | 21.88
328.15 K, x1 = 0.8327 | 1100.2 | 29.92
328.15 K, x1 = 1 | 1125.5 | 48.36
333.15 K, x1 = 0.1004 | 846.65 | 2.21
333.15 K, x1 = 0.151 | 879.73 | 2.847
333.15 K, x1 = 0.2009 | 908.64 | 3.475
333.15 K, x1 = 0.3101 | 960.36 | 5.18
333.15 K, x1 = 0.4279 | 1002.74 | 7.6
333.15 K, x1 = 0.5606 | 1040.26 | 11.92
333.15 K, x1 = 0.6901 | 1070.21 | 18.98
333.15 K, x1 = 0.8327 | 1096.86 | 26.84
333.15 K, x1 = 1 | 1122.14 | 43.01
338.15 K, x1 = 0.1004 | 842.59 | 1.853
338.15 K, x1 = 0.151 | 875.79 | 2.526
338.15 K, x1 = 0.2009 | 904.74 | 3.056
338.15 K, x1 = 0.3101 | 956.56 | 4.566
338.15 K, x1 = 0.4279 | 999.08 | 6.374
338.15 K, x1 = 0.5606 | 1036.78 | 10.1
338.15 K, x1 = 0.6901 | 1066.82 | 15.78
338.15 K, x1 = 0.8327 | 1093.56 | 23.43
338.15 K, x1 = 1 | 1118.8 | 37.15
